Earlier results in PMC7395068, “The evolution of strategies to minimise the risk of human drug-induced liver injury (DILI) in drug discovery and development” (Archives of Toxicology, 2020).
Read-outs that look alike come from different tables or passages of the source.

How the values were obtained:
[1] = system: THLE or HepG2 cells, isolated mitochondria, BSEP; conditions: cited from earlier work
[2] = cited from earlier work
[3] = cited from earlier work; remark: listed apart in the source
[4] = system: primary human hepatocytes, NIH3T3 fibroblasts, BSEP, CYP3A4; conditions: cited from earlier work
[5] = In vitro Assay, ref Schadt 2015

Row | Structure (SMILES) | Partition Hybrid HRM Score ([1]; In vitro Assay, ref Aleo 2019) | Ro2 Hybrid HRM Score ([1]; In vitro Assay, ref Aleo 2019) | In vivo DILI ([3]; ref Aleo 2019) | DILI +VE (5-8), DILI -VE (-4) ([2]; ref Chen 2016) | DILI severity category ([2]; ref Chen 2016) | In vivo DILI ([3]; ref Schadt 2015) | also measured
1 | Nc1ccc(C(=O)O)c(O)c1 [4-aminosalicylic acid] |  |  |  |  |  |  | Partition Hybrid HRM Score [1]: -VE; Ro2 Hybrid HRM Score [1]: -VE; DILI +VE (5-8), DILI -VE (-4) ([2]; in vivo): +VE; DILI severity category ([2]; in vivo): vMost-DILI-Concern
2 | CCOC(=O)Nc1ccc(NCc2ccc(F)cc2)nc1N [Flupirtine (Kv7 hepatotoxic@400)] | +VE | +VE | +VE |  |  |  | 
3 | O=C(Nc1cccc2c(=O)cc(-c3nnn[nH]3)oc12)c1ccc(OCCCCc2ccccc2)cc1 [Pranlukast] | +VE | +VE | +VE |  |  |  | 
4 | CCc1oc2ccccc2c1C(=O)c1ccc(O)cc1 [benzarone] | +VE | +VE | +VE | +VE | vMost-DILI-Concern |  | 
5 | CCc1oc2ccccc2c1C(=O)c1cc(I)c(O)c(I)c1 [benziodarone] | +VE | +VE | +VE | +VE | vMost-DILI-Concern |  | 
6 | CCCC1O[C@@H]2C[C@H]3[C@@H]4CCC5=CC(=O)C=C[C@]5(C)[C@H]4[C@@H](O)C[C@]3(C)[C@]2(C(=O)CO)O1 (some centres unmarked) [budesonide] |  |  |  | -VE | vNo-DILI-Concern | -VE | In vivo DILI ([3]; […]): -VE; Cellular toxicity (3T3 cells) [4, 5]: +VE; Combined Assay [4, 5]: -VE; GSH adduct HML [4, 5]: +VE; Hepatocyte cellular toxicity [4, 5]: +VE; MitoTox 3T3 [4, 5]: -VE; TDI CYP3A4 [4, 5]: -VE; hBSEP inhibition [4, 5]: +VE
7 | CCOc1nc2cccc(C(=O)O)c2n1Cc1ccc(-c2ccccc2-c2nnn[nH]2)cc1 [candesartan] | -VE | -VE | +VE | +VE | vLess-DILI-Concern |  | 
8 | CCCC(C)(COC(N)=O)COC(=O)NC(C)C (centres unmarked) [carisoprodol] |  |  |  | -VE | vNo-DILI-Concern | -VE | Cellular toxicity (3T3 cells) [4]: -VE; Combined Assay [4]: -VE; GSH adduct HML [4]: -VE; Hepatocyte cellular toxicity [4]: -VE; MitoTox 3T3 [4]: -VE; TDI CYP3A4 [4]: -VE; hBSEP inhibition [4]: -VE
9 | N.N.[Cl][Pt][Cl] [cisplatin] |  | -VE |  |  |  |  | 
10 | CC[C@H]1OC(=O)[C@H](C)[C@@H](O[C@H]2C[C@@](C)(OC)[C@@H](O)[C@H](C)O2)[C@H](C)[C@@H](O[C@@H]2O[C@H](C)C[C@H](N(C)C)[C@H]2O)[C@](C)(OC)C[C@@H](C)C(=O)[C@H](C)[C@@H](O)[C@]1(C)O [clarithromycin] |  |  |  | +VE | vMost-DILI-Concern | +VE | In vivo DILI ([3]; […]): -VE; Cellular toxicity (3T3 cells) [4, 5]: -VE; Combined Assay [4, 5]: +VE; GSH adduct HML [4, 5]: -VE; Hepatocyte cellular toxicity [4, 5]: -VE; MitoTox 3T3 [4, 5]: +VE; TDI CYP3A4 [4, 5]: -VE; hBSEP inhibition [4, 5]: -VE
11 | CN1CCC[C@@H]1CCO[C@](C)(c1ccccc1)c1ccc(Cl)cc1 [clemastine] | -VE | -VE | -VE | -VE | vNo-DILI-Concern |  | In vivo DILI ([3]; […]): -VE
12 | O=C1CN=C(c2ccccc2Cl)c2cc([N+](=O)[O-])ccc2N1 [clonazepam] |  |  |  | +VE | vLess-DILI-Concern | -VE | Cellular toxicity (3T3 cells) [4]: -VE; Combined Assay [4]: -VE; GSH adduct HML [4]: -VE; Hepatocyte cellular toxicity [4]: -VE; MitoTox 3T3 [4]: -VE; TDI CYP3A4 [4]: -VE; hBSEP inhibition [4]: -VE
13 | CN(C)CCC=C1c2ccccc2C=Cc2ccccc21 [cyclobenzaprine] |  |  |  | +VE | vLess-DILI-Concern | -VE | Cellular toxicity (3T3 cells) [4, 5]: +VE; Combined Assay [4, 5]: -VE; GSH adduct HML [4, 5]: -VE; Hepatocyte cellular toxicity [4, 5]: -VE; MitoTox 3T3 [4, 5]: -VE; TDI CYP3A4 [4, 5]: -VE; hBSEP inhibition [4, 5]: -VE
14 | CN1C[C@H](C(=O)N[C@]2(C)O[C@@]3(O)[C@@H]4CCCN4C(=O)[C@H](Cc4ccccc4)N3C2=O)C[C@@H]2c3cccc4[nH]cc(c34)C[C@H]21 [dihydroergotamine] |  |  | -VE | -VE | vNo-DILI-Concern |  | Partition Hybrid HRM Score [1]: -VE; Ro2 Hybrid HRM Score [1]: -VE
15 | CN1c2c(oc(=O)n(-c3ccccn3)c2=O)-c2ccccc2S1(=O)=O [droxicam] |  |  |  | +VE | vMost-DILI-Concern | +VE | Cellular toxicity (3T3 cells) [4, 5]: -VE; Combined Assay [4, 5]: -VE; GSH adduct HML [4, 5]: -VE; Hepatocyte cellular toxicity [4, 5]: -VE; MitoTox 3T3 [4, 5]: -VE; TDI CYP3A4 [4, 5]: -VE; hBSEP inhibition [4, 5]: -VE
16 | NC(N)=Nc1nc(CSCCN/C=N/S(=O)(=O)c2ccc(Br)cc2)cs1 [ebrotidine] | +VE | +VE | +VE | +VE | vMost-DILI-Concern |  | 
